Experimental data as given in patent US12582722B2, “Bifunctional compounds for degrading BTK via ubiquitin proteosome pathway” (NURIX THERAPEUTICS, INC., priority 2019, dated 2026).

These compounds were tested against T1, BTK (Homo sapiens, UniProt Q06187) (assay: Cellular BTK HTRF Assay (BTK degradation in Ramos cells)). Conditions: four hours incubation, 37° C., BTK levels relative to DMSO-treated cells.
T1 construct: endogenous in cells; host or cells: Ramos (ATCC CRL-1596)
Type: cell-based
Experimental: Ramos (CRL-1596) cells were obtained from American Type Culture Collection and were grown in RPMI-1640 media (ATCC, 30-2001) supplemented with 10% heat-inactivated FBS (Corning Premium Fetal Bovine Serum from Fisher, MT35015CV).
Compounds of the present invention were added to 50,000 Ramos cells in round-bottom 96 well plates with a final DMSO concentration of […] and were incubated at 37° C., 5% CO2 for four hours. BTK levels were determined using Cisbio Total-BTK HTRF ([…] Time-Resolved Fluorescence) kit (63ADK064PEG) according to manufacturer's protocol. Briefly, cells were incubated in 1× supplied lysis buffer for 30 minutes. In an opaque white low volume 96 well plate (Cisbio, 66PL96005), cell lysate was combined with two different specific BTK antibodies, one conjugated with Eu^3+-Cryptate FRET donor and one conjugated with d2 FRET acceptor. Assay controls include wells containing cell lysate with only the Eu^3+-Cryptate FRET donor antibody and wells containing both HTRF antibodies and lysis buffer without cells or control lysate provided by Cisbio. HTRF ratio was calculated as (acceptor signal at 665 nm/donor signal at 620 nm)×10^4. Background HTRF levels were determined from the control well containing the donor, but no acceptor, antibody. Background HTRF levels were subtracted from all samples. Readouts were reported as HTRF levels relative to HTRF levels of DMSO-treated cells. Four-parameter non-linear regressions were performed in GraphPad Prism 7.02 to obtain DC50 values. DC50 values are provided in Table 3, wherein A<7.5 nM, 7.5 nM≤B≤50 nM, and 50 nM<C<500 nM.

T1 sequence (Q06187 whole entry): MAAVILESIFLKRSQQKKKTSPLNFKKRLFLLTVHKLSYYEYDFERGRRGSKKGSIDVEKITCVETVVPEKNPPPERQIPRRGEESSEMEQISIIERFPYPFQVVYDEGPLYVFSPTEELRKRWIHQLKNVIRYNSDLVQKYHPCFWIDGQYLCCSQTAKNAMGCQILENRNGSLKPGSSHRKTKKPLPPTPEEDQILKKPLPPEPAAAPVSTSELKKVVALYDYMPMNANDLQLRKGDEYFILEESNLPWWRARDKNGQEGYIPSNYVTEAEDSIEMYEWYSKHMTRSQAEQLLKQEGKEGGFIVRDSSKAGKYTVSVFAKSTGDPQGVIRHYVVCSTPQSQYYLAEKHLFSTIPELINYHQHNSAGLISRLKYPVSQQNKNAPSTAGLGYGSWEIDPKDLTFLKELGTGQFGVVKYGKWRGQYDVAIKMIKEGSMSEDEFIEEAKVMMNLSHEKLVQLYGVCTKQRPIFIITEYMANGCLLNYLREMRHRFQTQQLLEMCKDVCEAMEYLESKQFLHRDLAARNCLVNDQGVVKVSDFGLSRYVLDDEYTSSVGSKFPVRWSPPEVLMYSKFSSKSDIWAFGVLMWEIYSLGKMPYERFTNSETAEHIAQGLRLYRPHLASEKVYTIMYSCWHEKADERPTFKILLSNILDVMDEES

Row | Structure (SMILES) | DC50
1 | CS(=O)(=O)c1ccc(Nc2nc(N3CCC[C@@H](NC(=O)OCC4CCN(c5ccc6c(c5)C(=O)N(C5CCC(=O)NC5=O)C6=O)CC4)C3)cnc2C(N)=O)cc1 (stereo partly drawn) [Compound 8, (1-(2-(2,6-dioxopiperidin-3-yl)-1,3-dioxoisoindolin-5-yl)piperidin-4-yl)methyl ((R)-1-(5-carbamoyl-6-((4-(methylsulfonyl)phenyl)amino)pyrazin-2-yl)piperidin-3-yl)carbamate] | 7.5 to 50 nM
2 | Cc1cc(Nc2nc(N3CCC[C@@H](NC(=O)N4CCN(c5ccc6c(c5)C(=O)N(C5CCC(=O)NC5=O)C6=O)CC4)C3)cnc2C(N)=O)sn1 (stereo partly drawn) [Compound 27, 5-[(3R)-3-{4-[2-(2,6-dioxopiperidin-3-yl)-1,3-dioxoisoindol-5-yl]piperazine-1-carbonylamino}piperidin-1-yl]-3-[(3-methyl-1,2-thiazol-5-yl)amino]pyrazine-2-carboxamide] | 50 to 500 nM
3 | Cc1cc(Nc2nc(N3CCC[C@@H](NC(=O)C4CCN(C5CN(c6ccc7c(c6)C(=O)N(C6CCC(=O)NC6=O)C7=O)C5)CC4)C3)cnc2C(N)=O)sn1 (stereo partly drawn) [Compound 38, 5-((3R)-3-(1-(1-(2-(2,6-dioxopiperidin-3-yl)-1,3-dioxoisoindolin-5-yl)azetidin-3-yl)piperidine-4-carboxamido)piperidin-1-yl)-3-((3-methylisothiazol-5-yl)amino)pyrazine-2-carboxamide] | 7.5 to 50 nM
4 | CS(=O)(=O)c1ccc(Nc2nc(N3CCC[C@@H](NC(=O)N4CC5(C4)CN(c4ccc6c(c4)C(=O)N(C4CCC(=O)NC4=O)C6=O)C5)C3)cnc2C(N)=O)cc1 (stereo partly drawn) [Compound 24, N-[(3R)-1-{5-carbamoyl-6-[(4-methanesulfonylphenyl)amino]pyrazine-2-yl}piperidin-3-yl]-6-[2-(2,6-dioxopiperidin-3-yl)-1,3-dioxoisoindol-5-yl]-2,6-diazaspiro[3.3]heptane-2-carboxamide] | 7.5 to 50 nM
5 | CS(=O)(=O)c1ccc(Nc2nc(N3CCC[C@@H](NC(=O)N4CCN(Cc5ccc6c(c5)C(=O)N(C5CCC(=O)NC5=O)C6=O)CC4)C3)cnc2C(N)=O)cc1 (stereo partly drawn) [Compound 26, 5-((3R)-3-(4-((2-(2,6-dioxopiperidin-3-yl)-1,3-dioxoisoindolin-5-yl)methyl)piperazine-1-carboxamido)piperidin-1-yl)-3-((4-(methylsulfonyl)phenyl)amino)pyrazine-2-carboxamide] | 50 to 500 nM
6 | CS(=O)(=O)c1ccc(Nc2nc(N3CCC[C@@H](NC(=O)CCCCc4ccc5c(c4)C(=O)N(C4CCC(=O)NC4=O)C5)C3)cnc2C(N)=O)cc1 (stereo partly drawn) [Compound 4, 5-[(3R)-3-{5-[2-(2,6-dioxopiperidin-3-yl)-3-oxo-1H-isoindol-5-yl]pentanamido}piperidin-1-yl]-3-[(4-methanesulfonylphenyl)amino]pyrazine-2-carboxamide] | 50 to 500 nM
7 | Cc1cc(Nc2nc(N3CCC[C@@H](NC(=O)C4CCN(CC5CN(c6ccc7c(c6)C(=O)N(C6CCC(=O)NC6=O)C7=O)C5)CC4)C3)cnc2C(N)=O)sn1 (stereo partly drawn) [Compound 17, 5-[(3R)-3-[1-({1-[2-(2,6-dioxopiperidin-3-yl)-1,3-dioxoisoindol-5-yl]azetidin-3-yl}methyl)piperidine-4-amido]piperidin-1-yl]-3-[(3-methyl-1,2-thiazol-5-yl)amino]pyrazine-2-carboxamide] | < 7.5 nM
8 | CS(=O)(=O)c1ccc(Nc2nc(N3CCC[C@@H](NC(=O)CCCCCCc4cccc5c4CN(C4CCC(=O)NC4=O)C5=O)C3)cnc2C(N)=O)cc1 (stereo partly drawn) [Compound 5, 5-[(3R)-3-{7-[2-(2,6-dioxopiperidin-3-yl)-1-oxo-3H-isoindol-4-yl]heptanamido}piperidin-1-yl]-3-[(4-methanesulfonylphenyl)amino]pyrazine-2-carboxamide] | 50 to 500 nM
9 | CS(=O)(=O)c1ccc(Nc2nc(N3CCC[C@@H](NC(=O)C4CC5(C4)CN(Cc4ccc6c(c4)C(=O)N(C4CCC(=O)NC4=O)C6=O)C5)C3)cnc2C(N)=O)cc1 (stereo partly drawn) [Compound 32, N—((R)-1-(5-carbamoyl-6-((4-(methylsulfonyl)phenyl)amino)pyrazin-2-yl)piperidin-3-yl)-2-((2-(2,6-dioxopiperidin-3-yl)-1,3-dioxoisoindolin-5-yl)methyl)-2-azaspiro[3.3]heptane-6-carboxamide] | 7.5 to 50 nM

Now from value to compound:

Row | DC50 | Structure (SMILES)
10 | < 7.5 nM | CS(=O)(=O)c1ccc(Nc2nc(N3CCC[C@@H](NC(=O)C4CCC5(CC4)CCN(Cc4ccc6c(c4)C(=O)N(C4CCC(=O)NC4=O)C6=O)CC5)C3)cnc2C(N)=O)cc1 (stereo partly drawn) [Compound 31, N—((R)-1-(5-carbamoyl-6-((4-(methylsulfonyl)phenyl)amino)pyrazin-2-yl)piperidin-3-yl)-3-((2-(2,6-dioxopiperidin-3-yl)-1,3-dioxoisoindolin-5-yl)methyl)-3-azaspiro[5.5]undecane-9-carboxamide]
11 | < 7.5 nM | CS(=O)(=O)c1ccc(Nc2nc(N3CCC[C@@H](NC(=O)N4CCC5(CCN(Cc6ccc7c(c6)C(=O)N(C6CCC(=O)NC6=O)C7=O)C5)CC4)C3)cnc2C(N)=O)cc1 (stereo partly drawn) [Compound 13, N-[(3R)-1-{5-carbamoyl-6-[(4-methanesulfonylphenyl)amino]pyrazin-2-yl}piperidin-3-yl]-2-{[2-(2,6-dioxopiperidin-3-yl)-1,3-dioxoisoindol-5-yl]methyl}-2,8-diazaspiro[4.5]decane-8-carboxamide]
12 | < 7.5 nM | Cc1cc(Nc2nc(N3CCC[C@@H](NC(=O)C4CCN(CC5CCN(c6ccc7c(c6)C(=O)N(C6CCC(=O)NC6=O)C7=O)CC5)CC4)C3)cnc2C(N)=O)sn1 (stereo partly drawn) [Compound 22, 5-[(3R)-3-[1-({1-[2-(2,6-dioxopiperidin-3-yl)-1,3-dioxoisoindol-5-yl]piperidin-4-yl}methyl)piperidine-4-amido]piperidin-1-yl]-3-[(3-methyl-1,2-thiazol-5-yl)amino]pyrazine-2-carboxamide]
13 | < 7.5 nM | CS(=O)(=O)c1ccc(Nc2nc(N3CCC[C@@H](NC(=O)C4CCN(CC5CCN(c6ccc7c(c6)C(=O)N(C6CCC(=O)NC6=O)C7=O)CC5)CC4)C3)cnc2C(N)=O)cc1 (stereo partly drawn) [Compound 20, 5-[(3R)-3-[1-({1-[2-(2,6-dioxopiperidin-3-yl)-1,3-dioxoisoindol-5-yl]piperidin-4-yl}methyl)piperidine-4-amido]piperidin-1-yl]-3-[(4-methanesulfonylphenyl)amino]pyrazine-2-carboxamide]
14 | < 7.5 nM | Cn1cc(Nc2nc(N3CCC[C@@H](N4CCC5(CCN(CC6CCN(c7ccc8c(c7)C(=O)N(C7CCC(=O)NC7=O)C8=O)CC6)CC5)C4=O)C3)cnc2C(N)=O)cn1 (stereo partly drawn) [Compound 48, 5-[(3R)-3-[8-({1-[2-(2,6-dioxopiperidin-3-yl)-1,3-dioxoisoindol-5-yl]piperidin-4-yl}methyl)-1-oxo-2,8-diazaspiro[4.5]decan-2-yl]piperidin-1-yl]-3-[(1-methylpyrazol-4-yl)amino]pyrazine-2-carboxamide]
15 | < 7.5 nM | Cc1cc(Nc2nc(N3CCC[C@@H](NC(=O)N4CCN(CC5CCN(c6ccc7c(c6)C(=O)N(C6CCC(=O)NC6=O)C7=O)CC5)CC4)C3)cnc2C(N)=O)sn1 (stereo partly drawn) [Compound 23, 5-[(3R)-3-[4-({1-[2-(2,6-dioxopiperidin-3-yl)-1,3-dioxoisoindol-5-yl]piperidin-4-yl}methyl)piperazine-1-carbonylamino]piperidin-1-yl]-3-[(3-methyl-1,2-thiazol-5-yl)amino]pyrazine-2-carboxamide]
16 | < 7.5 nM | Cn1cc(Nc2nc(N3CCC[C@@H](N4CC5(CN(CC6CCN(c7ccc8c(c7)C(=O)N(C7CCC(=O)NC7=O)C8=O)CC6)C5)OC4=O)C3)cnc2C(N)=O)cn1 (stereo partly drawn) [Compound 43, 5-[(3R)-3-[2-({1-[2-(2,6-dioxopiperidin-3-yl)-1,3-dioxoisoindol-5-yl]piperidin-4-yl}methyl)-6-oxo-5-oxa-2,7-diazaspiro[3.4]octan-7-yl]piperidin-1-yl]-3-[(1-methylpyrazol-4-yl)amino]pyrazine-2-carboxamide]
17 | < 7.5 nM | Cc1cc(Nc2nc(N3CCC[C@@H](NC(=O)C4CCN(CC5CCN(c6ccc7c(c6)C(=O)N(C6CCC(=O)NC6=O)C7=O)CC5)C4)C3)cnc2C(N)=O)sn1 (stereo partly drawn) [Compound 15, 5-[(3R)-3-[1-({1-[2-(2,6-dioxopiperidin-3-yl)-1,3-dioxoisoindol-5-yl]piperidin-4-yl}methyl)pyrrolidine-3-amido]piperidin-1-yl]-3-[(3-methyl-1,2-thiazol-5-yl)amino]pyrazine-2-carboxamide]
18 | < 7.5 nM | CS(=O)(=O)c1ccc(Nc2nc(N3CCC[C@@H](NC(=O)N4CCC5(CC4)CCN(c4ccc6c(c4)C(=O)N(C4CCC(=O)NC4=O)C6=O)CC5)C3)cnc2C(N)=O)cc1 (stereo partly drawn) [Compound 11, N-[(3R)-1-{5-carbamoyl-6-[(4-methanesulfonylphenyl)amino]pyrazin-2-yl}piperidin-3-yl]-9-[2-(2,6-dioxopiperidin-3-yl)-1,3-dioxoisoindol-5-yl]-3,9-diazaspiro[5.5]undecane-3-carboxamide]
